Source: patent US12590118B2, “Salt and crystal form of steroid derivative regulator” (Shanghai Hansoh Biomedical Co., Ltd., priority 2019, dated 2026)

What was measured:
[1] = target: T1, human GABAA receptor α1, β2 and γ2 subunit (HEK293T cell line) (Homo sapiens, UniProt P14867+P47870); assay: Positive regulatory effect on GABAA receptor, manual patch clamp; format: cell-based; settings: whole-cell current, 1 μM GABA
T1 construct: expressed in transfected cells
Protocol: The objective of this test example is to determine the positive regulatory effect of the compound on GABAA receptor by the electrophysiological manual patch clamp method.
Manual patch clamp system HEKA EPC10 USB signal amplifier and digital conversion system (purchased from HEKA Electronics, Germany), centrifuge (Eppendorf, etc.), carbon dioxide incubator (purchased from Thermo, etc.), biological safety cabinet (Thermo, etc.), pipette (purchased from Eppendorf, etc.).
The cells were grown in a culture dish with DMEM medium (purchased from Invitrogen), and cultured in an incubator at 37° C. and 5% CO2. Before the electrophysiological experiment, the cells were transferred to a round glass slide placed in the culture dish, and grown in the same culture medium and under the same culture condition as above. The density of cells on each round glass slide should meet the requirement that most cells were independent and individual.
Each test compound was diluted in gradient with DMSO to obtain a stock solution, which was then diluted with extracellular fluid by 1,000-fold to obtain the final test concentration. The final concentration of DMSO in the compound solution with each concentration was 0.1%. The experiment used the manual patch clamp system HEKA EPC10 USB signal amplifier and digital conversion system for whole cell current recording. The round glass slide with HEK293T GABAA cells grown on the surface was taken out of the culture dish, and placed in the electrophysiological recording tank under the inverted microscope. The recording tank was continuously perfused with extracellular fluid. During the experiment, the whole-cell current recording technology was used to record the chloride current of the GABAA channel. 1 μM GABA was used to activate the chloride current of the GABAA channel of each cell as an initial control. 1 μM GABA acted on the cell through the drug perfusion system to induce the chloride current of the GABAA channel, the action time was about 3 to 5 seconds, and the current value was used as the initial control value. The test concentration of compound was perfused and incubated for 2 to 5 minutes. […] GABA solution (mixed with the test concentration of compound) was given to the cells to observe the enhancement effect of the test compound on the current induced by 1 μM GABA. When the cell state was stable, the test compound acted on the same cell from low to high concentration to record the enhancement effect of the induced current.
The experimental data was analyzed by HEKA Patchmaster, Microsoft Excel and the data analysis software provided by Graphpad Prism.

[2] = test system: CD-1 mice; assay: PTZ-induced epilepsy model in mice; format: in vivo; settings: 3 mpk p.o., PTZ 120 mg/kg s.c., 30 min observation
Protocol: The PTZ-induced epilepsy model in CD-1 mice was established, and the antiepileptic effect of the compounds of Example 2, Example 40, Example 41 and Example 52 was evaluated using this model.
50 male CD-1 mice were purchased from Beijing Vital River Laboratory Animal Technology Co. Ltd. The test animals were adapted at the animal room in the third building of Shanghai ChemPartner Co., Ltd for 7 days before the experiment. The average body weight of the animals on the test day was 32.2±0.2 grams. Feeding environment: 5 animals/cage, room temperature 23±2° C., 12/12 hours of light and dark cycle, free access to food and water.
The mice were randomly grouped for the experiment on the test day.
Compounds of Example 2, Example 40, Example 41 and Example 52 (prepared by the applicant). The test compounds were stored in a refrigerator at 4° C.
4.2.3 Test Equipments • 1 ml sterile disposable syringe with needle (purchased from Zhejiang Kangdelai Medical Devices Co., Ltd.) • Pipette: Eppendorf Research Plus (100-1000 μL) • Vortex mixer: Kylin-Bell Vortex 5 • Ultrasonic instrument: JL-360 ultrasonic cleaner • Balance: METTLER TOLEDO XS204 precision balance • Balance: METTLER TOLEDO XS6002S electronic balance • Plexiglass box: 25 cm length*15 cm width*15 cm height with one opaque side wall, custom made by Suzhou Fengshi Laboratory Animal Equipment Co., Ltd • 3-channel timer: Oregon/Model NO. WB-388. 4.2.4 Test Animal Grouping • 1) Vehicle/PTZ: 0.5% CMC-Na+1% Tween-80 (10 ml/kg, p.o.), administered 0.5 hr before the PTZ administration; PTZ ([…], s.c.), administered before the experiment; • 2) 3 mg/kg of the compounds of Examples/PTZ: the compounds of Example 2, Example 40, Example 41 and Example 52 (3 mg/kg, 10 ml/kg, p.o.), administered 0.5 hr before the PTZ administration; PTZ ([…], s.c.), administered before the experiment. 4.3 Experimental Procedures 4.3.1 Solvent Formulation • 1) 0.5% CMC-Na+1% Tween-80 (administration volume: 10 mL/kg):
1 g of sodium carboxymethyl cellulose was precisely weighed and added to a 250 mL solvent bottle, then 150 mL of double-distilled water was added. The mixture was stirred at room temperature for 4 hours with a magnetic stirrer to obtain a uniform and clear solution. 2 mL of Tween-80 was slowly added, and the mixture was stirred at room temperature for 3 hours to obtain a uniform and clear solution. The solution was slowly transferred to a 200 mL volumetric flask, and double distilled water was added to the constant volume of 200 mL. The solution was transferred to a 250 mL solvent bottle, and stirred for 1 hour with a magnetic stirrer to obtain a uniform and clear solution. • 2) 30% hydroxypropyl-p-cyclodextrin:
248 mg of PTZ was precisely weighed and added to a 40 mL brown flask, then 20.667 mL of physiological saline was added. The mixture was mixed by vortex for 2 minutes, and treated by ultrasound at room temperature for 2 minutes to obtain a uniform and clear solution (concentration: 12 mg/mL). • 2) 0.3 mg/mL of the compounds of Example 5 or Example 23 (dose: 3 mg/kg; administration volume: 10 mL/kg): […]
4.4 Adaptation to the Environment
The mice were randomly grouped, marked and weighed; 10 mice per group. The test compound was administered orally at an administration volume of 10 mL/kg 30-60 minutes before the PTZ administration.
PTZ (120 mg/kg) was administrated subcutaneously before the experiment observation, and this time point was recorded as the observation start point; after the administration of PTZ, the animal was immediately placed in the observation box and observed for 30 minutes, and the followings were recorded: a) the incubation period of the first clonic seizure, b) the incubation period of the first generalized tonic seizure, c) the number of clonic seizures, d) the number of generalized tonic seizures, e) the time when the animal died.
All measurement data were expressed as Mean±SEM, and analysed with Prism 6.0 statistical software.

[3] = test system: ICR mice; assay: Forced swimming model in mice; format: in vivo; settings: for Mean (immobility, %): floating time/240 s; for Mean (immobility, s): latter four minutes of 6 min swim
Protocol: The antidepressant effect of the compound was evaluated by the forced swimming model in mice.
Compounds of Examples 1 to 3, Example 9, Example 40, Example 41, Examples 48 to 52, Example 90 and Example 98 of the present invention, prepared by the applicant.
Male ICR mice (25-35 g) were adapted in the experiment environment for 3 days before the forced swimming test.
According to the experiment design, the mice were randomly grouped on the day before the experiment according to body weight, with 12 mice in each group. Before the test, the compounds of each example were administered intragastrically according to the Tmax thereof in the brain in mice pharmacokinetic experiment.
Respectively: • 1) Model group (0.5% CMC-Na-1% Tween 80 solution, p.o., 10 mL/kg); • 2) Compounds of Examples 1 to 3, Example 40, Example 41, Examples 48 to 51, Example 90 and Example 98 (10 mg/kg, p.o., 10 mL/kg); Example 9 and Example 52 (5 mg/kg, p.o., 5 mL/kg).
When being administered, the compounds of each example were suspended in 0.5% CMC-Na+1% Tween 80 solution to the desired concentration.
0.5-1 hour after administration, ICR mice were placed in a forced swimming device (transparent glass drum (water depth 18 cm, water temperature 25-26° C.), one mouse per tank) and forced to swim for 6 minutes. The forced swimming device recorded the floating time of the ICR mice during the entire 6 minutes, and the data of the latter four minutes were used for data analysis. The mice were taken out immediately after the swimming experiment, wiped dry and put back in their original cages.
Note: The criterion for determining the immobility time is that the mouse stops struggling in water and floats, and there are only slight limb movements to keep the head floating on the water.
3.4 Data Analysis Floating time percentage=100*floating time/240 s.

[4] = target: GABA-A receptor; assay: 35S-TBPS binding assay (GABAA receptor binding ability assay); design: species or system Sprague-Dawley rat; settings: rat cerebral cortex cell membrane, 5 μM GABA, 2 nM 35S-TBPS; read-out: IC50 on inhibiting the TBPS binding activity, 35S-TBPS bindng assay
Summary of the method: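 Male Sprague-Dawley rat cerebral cortex membranes in PBS, preincubated with compound (1% DMSO, 8-point 3-fold series) 5 min at 25° C, then GABA 5 μM final 5 min, then 2 nM 35S-TBPS for 20 h at 4° C. Bound radioactivity filtered on PEI-treated GF/C and counted. % inhibition relative to DMSO and 10 μM P026-2 controls; IC50 from 4-parameter fit.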

T1 sequence (P14867 28-456): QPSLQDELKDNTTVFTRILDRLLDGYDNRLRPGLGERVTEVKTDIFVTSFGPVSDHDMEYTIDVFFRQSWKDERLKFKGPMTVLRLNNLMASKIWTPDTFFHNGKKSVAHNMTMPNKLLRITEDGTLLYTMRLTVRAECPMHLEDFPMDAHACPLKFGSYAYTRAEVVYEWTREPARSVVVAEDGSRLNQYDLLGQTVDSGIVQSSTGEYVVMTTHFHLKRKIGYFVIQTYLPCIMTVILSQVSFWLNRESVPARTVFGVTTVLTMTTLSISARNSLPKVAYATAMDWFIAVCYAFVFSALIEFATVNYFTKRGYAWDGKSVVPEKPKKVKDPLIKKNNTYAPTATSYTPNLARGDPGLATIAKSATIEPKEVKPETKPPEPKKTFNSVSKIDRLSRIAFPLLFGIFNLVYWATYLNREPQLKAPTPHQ
T1 sequence (P47870 25-512 limits assumed): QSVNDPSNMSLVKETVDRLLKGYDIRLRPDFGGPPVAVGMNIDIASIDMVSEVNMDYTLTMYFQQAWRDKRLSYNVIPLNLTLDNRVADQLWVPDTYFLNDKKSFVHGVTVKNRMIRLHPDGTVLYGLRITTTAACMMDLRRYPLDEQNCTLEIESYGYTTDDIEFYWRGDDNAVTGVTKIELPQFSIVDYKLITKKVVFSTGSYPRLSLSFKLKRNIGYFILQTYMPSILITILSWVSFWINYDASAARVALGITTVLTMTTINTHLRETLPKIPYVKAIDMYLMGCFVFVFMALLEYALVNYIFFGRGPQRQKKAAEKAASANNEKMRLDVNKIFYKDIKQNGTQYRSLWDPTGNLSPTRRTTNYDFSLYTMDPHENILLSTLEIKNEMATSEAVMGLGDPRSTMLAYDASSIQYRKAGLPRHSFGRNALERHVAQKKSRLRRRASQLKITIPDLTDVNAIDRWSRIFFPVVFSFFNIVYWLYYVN
T1 sequence (P18507 40-475 partner): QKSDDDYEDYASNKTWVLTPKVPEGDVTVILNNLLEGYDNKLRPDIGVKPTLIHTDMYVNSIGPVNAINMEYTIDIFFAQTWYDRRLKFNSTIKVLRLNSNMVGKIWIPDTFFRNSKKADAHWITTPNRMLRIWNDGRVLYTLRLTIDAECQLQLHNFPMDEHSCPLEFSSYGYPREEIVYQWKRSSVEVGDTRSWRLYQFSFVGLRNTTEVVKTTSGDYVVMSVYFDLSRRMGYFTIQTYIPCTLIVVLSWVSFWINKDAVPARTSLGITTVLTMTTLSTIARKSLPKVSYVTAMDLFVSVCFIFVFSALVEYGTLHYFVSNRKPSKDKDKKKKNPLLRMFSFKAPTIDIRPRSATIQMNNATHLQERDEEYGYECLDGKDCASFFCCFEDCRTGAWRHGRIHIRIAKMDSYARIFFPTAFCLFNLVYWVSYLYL

Compound	EC50 [1] [µM]	Incubation period of the clonic seizure (sec) Mean ± SEM [2] [s]	Incubation period of the generalized tonic seizure (sec) Mean [2] [s]	Mortality rate (%) [2] [%]	Number of clonic seizures Mean [2]	Number of generalized tonic seizures Mean [2]	Time when the animal died (sec) Mean [2] [s]	Mean (immobility, %) ([3]; dose 10 mpk p.o.) [%]	Mean (immobility, s) ([3]; dose 10 mpk p.o.) [s]	immobility time during the latter four minutes compared with that of the model group ([3]; forced swimming, ICR mice)	IC50 [4] [µM]	Mean (immobility, %) ([3]; dose 5 mpk p.o.) [%]	Mean (immobility, s) ([3]; dose 5 mpk p.o.) [s]
C[C@@H]1C[C@H](C(=O)Cn2nccn2)[C@@]2(C)CC[C@H]3[C@@H](CC[C@@H]4C[C@](C)(O)CC[C@@H]43)[C@H]12 [Example 41, 1-((3R,5R,8R,9R,10S,13S,14S,15R,17S)-3-Hydroxy-3,13,15-trimethylhexadecahydro-1H-cyclopenta[a]phenanthren-17-yl)-2-(2H-1,2,3-triazol-2-yl)ethan-1-one]	0.13	841.4 ± 179.8	1497.4 ± 124.3	40	1.9 ± 0.4	0.5 ± 0.2	1573.1 ± 117.9	35.75	85.8	very significantly different	–	–	–
C[C@@H]1C[C@H](C(=O)Cn2cc(C#N)c(Cl)n2)[C@@]2(C)CC[C@H]3[C@@H](CC[C@@H]4C[C@](C)(O)CC[C@@H]43)[C@H]12 [Example 88, 3-Chloro-1-(2-((3R,5R,8R,9R,10S,13S,14S,15R,17S)-3-hydroxy-3,13,15-trimethylhexadecahydro-1H-cyclopenta[a]phenanthren-17-yl)-2-oxoethyl)-1H-pyrazole-4-carbonitrile]	0.049	–	–	–	–	–	–	–	–	–	0.0067	–	–
C[C@@H]1C[C@H](C(=O)Cn2nc(C#N)cc2C#N)[C@@]2(C)CC[C@H]3[C@@H](CC[C@@H]4C[C@](C)(O)CC[C@@H]43)[C@H]12 [Example 89, 1-(2-((3R,5R,8R,9R,10S,13S,14S,15R,17S)-3-Hydroxy-3,13,15-trimethylhexadecahydro-1H-cyclopenta[a]phenanthren-17-yl)-2-oxoethyl)-1H-pyrazole-3,5-dicarbonitrile]	0.043	–	–	–	–	–	–	–	–	–	0.0043	–	–
Cc1nnn(CC(=O)[C@H]2C[C@@H](C3CC3)[C@H]3[C@@H]4CC[C@@H]5C[C@](C)(O)CC[C@@H]5[C@H]4CC[C@@]32C)n1 [Example 52, 1-((3R,5R,8R,9R,10S,13S,14S,15S,17S)-15-Cyclopropyl-3-hydroxy-3,13-dimethylhexadecahydro-1H-cyclopenta[a]phenanthren-17-yl)-2-(5-methyl-2H-tetrazol-2-yl)ethan-1-one]	0.15	635.4 ± 149.9	1506.8 ± 149.8	30	1.8 ± 0.3	0.3 ± 0.2	1618.1 ± 121.3	–	–	–	–	38.00	91.21
C[C@@H]1C[C@H](C(=O)Cn2cc(C#N)cn2)[C@@]2(C)CC[C@H]3[C@@H](CC[C@@H]4C[C@](C)(O)CC[C@@H]43)[C@H]12 [Example 9, 1-(2-((3R,5R,8R,9R,10S,13S,14S,15R)-3-Hydroxy-3,13,15-trimethylhexadecahydro-1H-cyclopenta[a]phenanthren-17-yl)-2-oxoethyl)-1H-pyrazole-4-carbonitrile]	0.06	–	–	–	–	–	–	–	–	–	0.0046	57.60	138.22
